Assays:
[1] = molecular target: T1, MK2 (Rattus norvegicus, UniProt Q80ZF4); test: ELISA MK2 cell-based activity assay (phospho-HSP-27), RMVEC cells; settings: compound 20 μM, 30 minutes, 37° C.; for Average Response HSP27: phospho-HSP27 ELISA
T1 construct: endogenous in cells; host or cells: rat microvascular endothelial cells (RMVEC)
Experimental: (§1) The MK2 activator candidates, identified using the artificial intelligence (AI)-assisted docking approach, were tested in activity assays for lead selection against the MK2 target. MK2 activation was assessed using (a) a cell-based assay using rat microvascular endothelial cells (RMVEC) and (b) human cancer skin fibroblast cells (Malme-3M). In both assays, an Enzyme-linked ImmunoSorbent Assay (ELISA) technique was used to measure (HSP-27) phosphorylation (DYC2314-2, R&D Systems). Both cell lines were grown to confluency in a 96-well tissue culture plate and treated at 37° C. for 30 minutes with the test compounds at concentrations of 20 μM. The cells were subsequently lysed with a lysis solution containing 0.5% Triton X-100 and anti-proteolysis agents. The resulting lysates were then loaded onto ELISA plates coated with anti-rat phospho-HSP27. After incubation and washing, the plates were treated with an horseradish peroxidase (HRP)-conjugated anti-phospho-HSP27 secondary antibody and then measured for chemiluminescence. Higher activity compounds, acting on MK2, induced higher levels of HSP-27 phosphorylation, as measured by the ELISA.

[2] = molecular target: T2, MK2 (Homo sapiens, UniProt P49137); test: ELISA MK2 cell-based activity assay (phospho-HSP-27), Malme-3M cells; settings: for Ratio to Control / Pho-HSP27: Malme-3M cells, compound 20 μM, 30 minutes, 37° C.; for Pho-HSP27: phospho-HSP27 ELISA; for response in phospho-HSP27 ELISA, overall ranking: overall statement on compounds tested at 20 μM (Malme-3M and RMVEC cells)
T2 construct: endogenous in cells; host or cells: Malme-3M
Experimental: as §1

[3] = molecular target: T1, MK2; test: Western blot of HSP-27 phosphorylation in rat microvascular endothelial cells; format: cell-based; settings: 20 μM, 30 minutes, 37° C., of five compounds tested
Experimental: In order to assess the functional activity of the putative MK2 binding activators, a series of these compounds (i.e., Leflunomide, Netupitant, Paliperidone, Lomitapide, and Perospirone) were analyzed by Western blot analysis. Rat microvascular endothelial cells were grown to confluency in 35 mm tissue culture dishes. The cells were treated with or without the putative MK2 binding activators at 20 μM concentration for 30 minutes at 37° C. As a positive control, one of the cell dishes was exposed to UV light for ca. 10 minutes. […] The membrane was washed, treated with a chemiluminescence substrate, and digitally imaged followed by quantification by densitometry. The intensity of detected signal was proportional to the MK2 activation potency of the tested compound.
Western blot results from the compounds analyzed by the above-described method are provided in FIG. 1 and graphically as a histogram plot in FIG. 2, after normalization for HSP-27 signal.
The two bands seen in each lane of the blots represent monomeric and dimeric forms of both phosphorylated and unphosphorylated HSP-27. The intensity of the bands was quantified by densitometry and then each raw readout was normalized by the signal intensity of unphosphorylated HSP-27, in order to correct for any differences in lysate load across the various treatment conditions.

T1 sequence (Q80ZF4 1-386): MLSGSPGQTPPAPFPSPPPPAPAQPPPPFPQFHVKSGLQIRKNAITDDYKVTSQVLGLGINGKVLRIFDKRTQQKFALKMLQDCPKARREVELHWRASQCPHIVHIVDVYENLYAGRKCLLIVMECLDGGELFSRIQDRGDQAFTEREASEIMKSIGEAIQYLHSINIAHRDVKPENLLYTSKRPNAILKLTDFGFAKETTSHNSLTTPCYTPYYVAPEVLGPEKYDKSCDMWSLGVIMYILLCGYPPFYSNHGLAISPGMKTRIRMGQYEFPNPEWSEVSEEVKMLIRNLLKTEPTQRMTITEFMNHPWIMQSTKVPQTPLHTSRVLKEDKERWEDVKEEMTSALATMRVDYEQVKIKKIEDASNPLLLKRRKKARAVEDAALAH
T2 sequence (P49137 whole entry): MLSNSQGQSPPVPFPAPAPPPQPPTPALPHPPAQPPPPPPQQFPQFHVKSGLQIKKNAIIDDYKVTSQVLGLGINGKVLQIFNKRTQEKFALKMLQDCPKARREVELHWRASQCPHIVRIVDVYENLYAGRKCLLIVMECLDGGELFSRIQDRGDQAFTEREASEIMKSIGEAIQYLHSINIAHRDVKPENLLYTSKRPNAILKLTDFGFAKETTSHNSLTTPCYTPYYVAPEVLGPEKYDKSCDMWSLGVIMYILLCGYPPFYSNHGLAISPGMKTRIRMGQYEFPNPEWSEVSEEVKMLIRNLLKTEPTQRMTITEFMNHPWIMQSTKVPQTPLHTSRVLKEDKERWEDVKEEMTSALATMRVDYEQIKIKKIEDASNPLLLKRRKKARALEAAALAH

## CN(C)Cc1c(C(=O)NCCOc2ccc(C(=O)NO)cc2)oc2ccccc12 [Compound 54, Abexinostat]
[1]
  Ratio Compound/control: 2.3
  Average Response HSP27: 48.4 pg/mL
[2]
  Ratio to Control: 37.2
  Pho-HSP27: 836.0 pg/mL
  response in phospho-HSP27 ELISA, overall ranking: most robust response

## Fc1ccccc1-c1nc2ccn(Cc3ccc(-c4ccc(C(F)(F)F)cc4C(F)(F)F)nn3)cc-2n1 [Compound 66, Tegobuvir]
[1]
  Ratio Compound/control: 1.2
  Average Response HSP27: 26.2 pg/mL
[2]
  Ratio to Control: 0.9
  Pho-HSP27: 20.9 pg/mL

## O=C(NC1CCN(CCCCC2(C(=O)NCC(F)(F)F)c3ccccc3-c3ccccc32)CC1)c1ccccc1-c1ccc(C(F)(F)F)cc1 [Compound 68, Lomitapide]
[3]
  increase in HSP-27 phosphorylation (Western blot, normalized for HSP-27 signal): strongest increase in HSP-27 phosphorylation
[1]
  Ratio Compound/control: 3.4
  Average Response HSP27: 39.2 pg/mL
[2]
  Ratio to Control: 37.7
  Pho-HSP27: 848.5 pg/mL
  response in phospho-HSP27 ELISA, overall ranking: most robust response

## Cc1cc(C(=O)Nc2cc(Nc3ccc4c(/C=C/c5ccccn5)n[nH]c4c3)ccc2F)n(C)n1 [Compound 74, Ag-13958]
[1]
  Ratio Compound/control: 1.2
  Average Response HSP27: 20.4 pg/mL
[2]
  Ratio to Control: 0.7
  Pho-HSP27: 15.2 pg/mL

## O=C(Nc1ccc(-c2ccnc(Nc3ccc(N4CCOCC4)cc3)n2)cc1)C1CCCN1 (centres unmarked) [Compound 78, Xl-019]
[1]
  Ratio Compound/control: 0.6
  Average Response HSP27: 15.2 pg/mL
[2]
  Ratio to Control: 0.7
  Pho-HSP27: 15.0 pg/mL

## CC(=O)Nc1nc2c(Oc3cc(-c4ccc(C(F)(F)F)cc4)ncn3)cccc2s1 [Compound 83, Amg-517]
[1]
  Ratio Compound/control: 2.1
  Average Response HSP27: 33.7 pg/mL
[2]
  Ratio to Control: 1.3
  Pho-HSP27: 29.9 pg/mL

## O=C(O)CCn1c2c(c3ccccc31)C[C@H](NS(=O)(=O)c1ccc(F)cc1)CC2 [Compound 93, Ramatroban]
[1]
  Ratio Compound/control: 1.3
  Average Response HSP27: 27.6 pg/mL
[2]
  Ratio to Control: 1.5
  Pho-HSP27: 33.2 pg/mL

## O=C(O)c1ccc2nc(-c3cc(Cl)cc(Cl)c3)oc2c1 [Compound 95, Tafamidis]
[1]
  Ratio Compound/control: 0.8
  Average Response HSP27: 18.6 pg/mL
[2]
  Ratio to Control: 1.1
  Pho-HSP27: 24.1 pg/mL

## COc1ccc(-c2cc(C(F)F)nn2-c2ccc(S(N)(=O)=O)cc2)cc1F [Compound 113, Deracoxib]
[1]
  Ratio Compound/control: 1.2
  Average Response HSP27: 26.5 pg/mL
[2]
  Ratio to Control: 1.2
  Pho-HSP27: 26.2 pg/mL

## OC[C@@H](O)CN1CCN(c2ccccc2)CC1 [Levodropropizine]
[1]
  Ratio Compound/control: 2.3
  Average Response HSP27: 47.1 pg/mL
[2]
  Ratio to Control: 27.6
  Pho-HSP27: 621.3 pg/mL
  response in phospho-HSP27 ELISA, overall ranking: most robust response

Reference: patent publication US20230414575A1, “MK2 ACTIVATING COMPOUNDS FOR USE IN TREATING VASCULAR LEAK AND ENDOTHELIAL BARRIER DISORDERS” (Akttyva Therapeutics, Inc., priority 2020, published 2023)
